Laboratory results: PubChem BioAssay (NCI)
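Cells were grown in 96-well plates and exposed to each compound for 48 hours at five concentrations; endpoints were interpolated linearly between bracketing concentrations, or set to the highest concentration if not reached. Definition used: TGI = concentration required for complete inhibition of growth.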 Where a SMILES comes first, the peptide text is derived from it. The star is where a group is joined. Boc = CC(C)(C)OC(=O)*

How the values were obtained:
Experiment in all cases: NCI anticancer screen, dose series, 48 h
[1] = tested on: DU-145 prostate
[2] = tested on: KM12 colon
[3] = tested on: MDA-MB-435
[4] = tested on: MALME-3M melanoma
[5] = tested on: LOX IMVI melanoma
[6] = tested on: SK-MEL-2 melanoma
[7] = tested on: SF-268 CNS
[8] = tested on: HL-60(TB) leukemia
[9] = tested on: HCT-116 colon
[10] = tested on: MCF7 breast
[11] = tested on: NCI/ADR-RES ovarian
[12] = tested on: NCI-H522 lung
[13] = tested on: 786-0 renal
[14] = tested on: HOP-92 NSCLC
[15] = tested on: HT29 colon
[16] = tested on: NCI-H23 lung
[17] = tested on: NCI-H460 lung
[18] = tested on: CCRF-CEM leukemia
[19] = tested on: OVCAR-8 ovarian
[20] = tested on: OVCAR-4 ovarian

| SMILES | TGI [1] [µM] | TGI [2] [µM] | TGI [3] [µM] | TGI [4] [µM] | TGI [5] [µM] | TGI [6] [µM] | TGI [7] [µM] | TGI [8] [µM] | TGI [9] [µM] | TGI [10] [µM] | TGI [11] [µM] | TGI [12] [µM] | TGI [13] [µM] | TGI [14] [µM] | TGI [15] [µM] | TGI [16] [µM] | TGI [17] [µM] | TGI [18] [µM] | TGI [19] [µM] | TGI [20] [µM] |
| --- | --- | --- | --- | --- | --- | --- | --- | --- | --- | --- | --- | --- | --- | --- | --- | --- | --- | --- | --- | --- |
| O=C1/C(=C/c2cccnc2)C(n2cccc2)c2c(Br)sc(Br)c21 (configuration not stated) | 3.53 | 8.45 | 3.42 | 10.7 | 3.89 | 4.63 | 4.3 | 5.57 | 4.97 | 4.02 | > 52 | 12.6 | 6.17 | 4.64 | 11.1 | 9.18 | 18.9 | 10.1 | 4.81 | 3.83 |
| CCOC(=O)c1c(N)nn2c1cc1cccccc12 | > 100 | 54.6 | > 100 | 67.3 | 72.9 | 45.1 | 68.2 | > 100 | > 100 | > 100 | 57.7 | 46.7 | > 100 | 95.8 | > 100 | 69 | 58.6 | > 100 | 73.1 | > 100 |
| Cc1ccc([N+](=O)[O-])c2c(NCCNC(=O)Cn3ccnc3[N+](=O)[O-])ccnc12 | > 100 | > 100 | > 100 | 89.1 | > 100 | > 100 | > 100 | > 100 | > 100 | 44.2 | > 100 | 38 | > 100 | 78.1 | > 100 | > 100 | > 100 | > 100 | > 100 | > 100 |
| Cc1ccccc1C1CC(=O)CC(c2ccccc2C)C12C(=O)NC(=O)NC2=O (configuration not stated) | > 100 | > 100 | > 100 | > 100 | > 100 | > 100 | > 100 | > 100 | > 100 | > 100 | > 100 | > 100 | > 100 | > 100 | > 100 | > 100 | > 100 | > 100 | > 100 | > 100 |
| C[C@H]1O[C@@H](c2c(O)ccc3ccccc23)C[C@@H](N(C)C)C1O (some centres not stated) | > 100 | – | > 100 | > 100 | > 100 | > 100 | > 100 | > 100 | > 100 | > 100 | > 100 | > 100 | > 100 | > 100 | > 100 | > 100 | > 100 | > 100 | > 100 | > 100 |
| CCOc1ccc(N=NC2C(=O)N(C(=O)CC(=O)Nc3ccccc3OC)N=C2C)cc1 (configuration not stated) | > 100 | > 100 | 4.12 | > 100 | > 100 | > 58.7 | 97 | 22.5 | > 100 | > 100 | > 100 | 55.3 | > 57.3 | > 50.6 | > 100 | > 100 | > 42.8 | > 100 | > 100 | > 100 |
| COC(=O)/C=C/c1ccc2c(c1)CCC2 | > 100 | – | > 100 | > 100 | > 100 | > 100 | > 100 | 73.6 | 98 | > 100 | > 100 | > 100 | > 100 | 46.7 | > 100 | > 100 | > 100 | > 100 | > 100 | > 100 |
| COC1=C2CC(C)CC(OC)[C@@H](OC(=O)CCN)[C@H](C)/C=C(\C)C(OC(N)=O)C(OC)/C=C\C=C(/C)C(=O)NC(=CC1=O)C2=O (some centres not stated) | 20.8 | 8.36 | 6.96 | 16.3 | 2.22 | 22.7 | 26.2 | 0.757 | 12.3 | 2.03 | 34.5 | 0.658 | 14.2 | 2.05 | 13.1 | 6.22 | 24.4 | 1.49 | 15.5 | 12.6 |
| N#Cc1c(-c2ccc(Cl)cc2)cc(-c2ccc(Nc3ccnc4cc(C(F)(F)F)ccc34)cc2)[nH]c1=O | > 48.5 | > 100 | 10.2 | > 100 | > 23.5 | > 100 | > 100 | 35 | > 44 | > 100 | > 100 | > 100 | 24.9 | 32.7 | > 48.9 | > 100 | > 100 | 11 | > 100 | 24.2 |
| CN(NC(=O)c1ccco1)C1=NCCN1 | > 100 | > 100 | > 100 | > 100 | > 100 | > 100 | > 100 | > 100 | > 100 | > 100 | > 100 | > 100 | > 100 | > 100 | > 100 | > 100 | > 100 | > 100 | > 100 | > 100 |
| CC(NC(=O)C(NC(=O)OC(C)(C)C)C(C)C)C(=O)N1CCCC1C(=O)NCC(=O)NC(C(=O)NCC(=O)O)C(C)C (configuration not stated) (Boc-VAPGVG-OH; configuration not given here) | > 100 | – | > 100 | > 100 | > 100 | > 100 | > 100 | > 100 | > 100 | > 100 | > 100 | > 100 | > 100 | > 100 | > 100 | > 100 | > 100 | > 100 | > 100 | > 100 |
